Results as given in ChEMBL document CHEMBL3507680, “University of Dundee, Gates Library screen for HepG2 cell viability”.

Test: Human HepG2 cell viability assay in 384 well format
Type: toxicity, cell-based
Set-up: dose 125 nL, time 70.5 hour; cytotoxicity at 70.5 h: concentration not given beside the values
Conditions: HepG2 cells, read-out: Inhibition

Structure (SMILES) | cytotoxicity at 70.5 h [%]
Cc1cccc(CCC(=O)NCC2CCCN2c2cccnn2)c1 (configuration not stated) | 5.29
COc1ccc(/C=C/CN2C[C@H]3CC[C@@H]2CN(S(=O)(=O)N(C)C)C3)cc1 | -5.26
Cc1cccc(C(=O)N(C)Cc2cc(Br)cs2)n1 | -27.1
CN(Cc1ccco1)Cc1ccccc1CNC(=O)c1cnc[nH]1 | 13.3
COCCN1C[C@H]2[C@@H](C1)N(C(=O)c1cccc(OC)c1)CC[C@H]2OC | -2.65
CCCN(Cc1ccc(S(=O)(=O)NC)cc1)Cc1ccccc1OC | 1.33
CC(C)N1CC(NC(=O)c2ccc(Cl)s2)CC1=O (configuration not stated) | -6.6
CNC(=O)c1cccnc1NCc1ccc(Cn2ccnc2)cc1 | 34.2
CC1CCCCN1C(=O)c1ccc(=O)[nH]n1 (configuration not stated) | -5.98
Cc1cccc(OCCN2CCN(Cc3noc(C)n3)CC2)c1 | -2.75
CCC(NC(=O)C1CCN(S(C)(=O)=O)CC1)c1ccc(C)cc1 (configuration not stated) | -3.68
CC(=O)Nc1nc(C(=O)N2CCC(Nc3cccnn3)CC2)cs1 | -2.92
CNC(=O)c1cccc(Nc2cnn(C)c2)c1 | -1.28
CC(C)[C@@H](C)NC(=O)N1CCn2nc(C(=O)NCCN(C)C)cc2C1 | -0.748
CCN1CCC(CC(=O)N2CCc3sc(C(=O)N(C)C)cc3C2)CC1 | 20.6
CCc1nc(CN(C)C(=O)NCc2cccc(NC(C)=O)c2)cs1 | -10.2
COCCc1noc(CN2CCN(c3ccc(OC)cc3)C(=O)C2C)n1 (configuration not stated) | -15.8
CC(C)CC(NC(=O)c1ccn(C)c(=O)c1)c1cccs1 (configuration not stated) | 33.9
O=c1c(NCCO)c(N2CCN(c3ccccc3)CC2)c1=O | -4.94
CCOc1ncccc1CNCc1c(C)nn(C)c1N(C)C | 24.1
Cc1nc2ccccc2nc1CN(C)C1CCCN(c2cccnn2)C1 (configuration not stated) | 4.32

Structure (SMILES) | cytotoxicity at 70.5 h [%]
O=C(CN1CCc2ccccc2C1)NCc1cc2n(n1)CCCNC2 | -6.65
c1ccc2oc(N3CCC(c4nncn4C4CC4)CC3)nc2c1 | 29.8
O=C1c2cnc(N3CCCC3)nc2CN1CCc1ccc(Cl)cc1 | -6.15
CN(C)Cc1ccc(C2CCCCN2C(=O)c2cccc(CO)n2)cc1 (configuration not stated) | 23.6
Cc1csc(CN(CC2CCCO2)C(=O)c2cccnc2C)n1 (configuration not stated) | -6.56
CCN(CCc1nccs1)C(=O)c1sccc1C | -9.19
Cc1cc(C2CCCN2C(=O)CN(C)Cc2ccccc2)no1 (configuration not stated) | -5.16
Cc1nc2c(c(C)c1CC(=O)NCc1ccccc1F)c(=O)[nH]n2C | -7.35
Cn1ncc2c1NC(=O)CC2c1c(F)cccc1Cl (configuration not stated) | -5.11
Cc1cc(CN2CCN(CC(=O)NC3(C#N)CCCCC3)CC2)on1 | 2.07
CCCc1ccc(C(=O)N2Cc3c(Cn4ccnc4)nn(C)c3C2)cc1 | -8.3
CO[C@@H]1CCN(S(=O)(=O)c2cccnc2)[C@@H]2CN(CC3CC3)C[C@@H]21 | -8.38
Cc1ccc(N2CCc3sc(C(=O)N4CCOCC4)cc32)nn1 | 2.34
O=C(c1cnc(-c2cccs2)s1)N1CCCC(n2cccn2)C1 (configuration not stated) | -4.26
CO[C@@H]1CCC[C@@H](NC(=O)C(C)(C)c2cccc(F)c2)[C@H]1O | -7.35
CC(NC(=O)NCCCN1CCCC1=O)c1ccc(Cl)s1 (configuration not stated) | -14.2
COCc1noc(C2(c3ccc(Br)cc3)CCOCC2)n1 | -10.1
CC(=O)c1ccc(C(=O)Nc2ccnc(N(C)C)n2)cc1 | 6.64
Cc1ccoc1C(=O)N1CC[C@@]2(C[C@H](NS(C)(=O)=O)CCO2)C1 | -18.1
CC(C)N1CCC(Nc2ccn(Cc3ccccn3)n2)C1=O (configuration not stated) | 1.71
COc1ccc(-c2ccnc(N)c2)c(OC)c1 | 13.7

Structure (SMILES) | cytotoxicity at 70.5 h [%]
COc1ncccc1CNC(=O)Nc1cc(C)nn1C | -7.29
Cc1ccc(-c2ccnc(N(C)CC3CCCN3C)n2)c(C)n1 (configuration not stated) | 16.3
Cc1cnc2c(c1NCc1ccccn1)c(=O)n(C)c(=O)n2C | -11.2
Cn1cc(C2CCCN2CC(=O)N(CCC#N)Cc2ccco2)cn1 (configuration not stated) | 2
COc1cccc(Nc2nc(-c3ccncc3)nc3c2CNCC3)c1 | 24.2
Cc1noc(CN(C)CC2CCN(CCO)CC2)n1 | 5
CCCS(=O)(=O)N1Cc2nccn2CC(CN2CCCC2)C1 (configuration not stated) | -4.76
CC(C)CCC(=O)N1CC[C@@H]2[C@H](CC1)N(S(C)(=O)=O)CCS2(=O)=O | -10.2
NC(=O)c1sc2ccccc2c1C1CCN(S(=O)(=O)N2CCOCC2)C1 (configuration not stated) | 1.58
Cc1nc(CN2CCCC(NCCOCC(F)(F)F)C2)no1 (configuration not stated) | 24.6
Cc1ncsc1CN1CC[C@H]2OCC[C@@]2(C(=O)N2CCOCC2)C1 | -4.06
CCc1cc(C(=O)N[C@H]2CN(CCS(C)(=O)=O)C[C@@H]2C2CC2)[nH]n1 | -13.2
O=C(c1cocn1)N1C[C@H]2CCC[C@@]2(COCc2cccnc2)C1 | -1.51
CC(C)c1ccc(O)c(C(=O)N2CCN(Cc3cscn3)CC2)c1 | -15.1
CCCS(=O)(=O)N1CCOC2(CCCN(c3ccc(C)nn3)C2)C1 (configuration not stated) | -6.62
CSc1ccc(-c2cc(CN)nc3ccnn23)cc1 | -12.2
CNC(=O)[C@H]1C[C@@H]2CN(C(=O)c3cscn3)C[C@@H]2N1S(C)(=O)=O | -1.08
CCOc1nnc(CN(C)CC2CCCN2c2cccnn2)s1 (configuration not stated) | -4.16
COc1cc(C(C)=O)ccc1SCC(=O)Nc1ccc(C)cn1 | -7.73
CN(C)C(=O)CN1CCN(C(=O)c2cnn(-c3ccccc3Cl)c2)CC1 | -13.6
CCC(=O)N1CCN(c2ccc(C(=O)OC)cc2)CC1C (configuration not stated) | -0.474

Structure (SMILES) | cytotoxicity at 70.5 h [%]
CC(NC(=O)N(C)CCCOc1ccccc1)c1nncn1C (configuration not stated) | -5.85
Cc1cnc(CN(C)C2CCCN(c3cccnn3)C2)cn1 (configuration not stated) | -0.507
COc1cccc(C(=O)NCCCN2CCc3ccccc3C2)c1OC | -11.3
CN(C)c1nc2c(c(NCc3cc(O)ncn3)n1)CCCC2 | -4.94
CC(C)c1nc(CN2CCCC(O)C2)cs1 (configuration not stated) | 13.1
CNC(=O)C1(C)CCCN1Cc1cnn(C)c1C (configuration not stated) | -8.11
CS(=O)(=O)NC1CC2(CCN(CC3CC3)CC2)Oc2ccccc21 (configuration not stated) | 1.75
CC(=O)Nc1nc(C(=O)N2CCCC(n3ccnc3)C2)cs1 (configuration not stated) | -0.488
Oc1cccc(-c2cc(C3CCN(Cc4cncnc4)C3)ccn2)c1 (configuration not stated) | -3.45
Cc1cc(NC(=O)C(C#N)Cc2cnn(C)c2C)no1 (configuration not stated) | -13.8
Cc1cnccc1NCCNC1CCN(CC(C)C)CC1 | 2.02
O=C(NC1CCS(=O)(=O)C1)c1sccc1OC(F)F (configuration not stated) | 0.608
CCOc1ccc(S(=O)(=O)N(CCOC)Cc2ccncc2)cc1F | 35.3
Cc1cnn(C(C)C2CC2)c1NC(=O)c1ncccc1O (configuration not stated) | 9.8
c1cn(CCNc2nc(NC3CC3)nc3c2CCNCC3)nn1 | -14.7
N#Cc1ccccc1OCCN1CCC(N2CCNC2=O)CC1 | -11.9
CCC1CCCCN1C(=O)CCn1cnc2sccc2c1=O (configuration not stated) | -11.1
OCc1cn([C@@H]2c3ccccc3C3(CCNCC3)[C@H]2O)nn1 | -9
CCn1cnnc1CNC(=O)C1CCCN(Cc2cccc(F)c2)C1 (configuration not stated) | -14.4
